Source: patent US20060223849A1, “Benzazole derivatives, compositions, and methods of use as beta-secretase inhibitors” (priority 2005, published 2006)

System: HEK293 cells stably expressing wildtype human APP695 protein (HEK-APPwt cells)
Test: Aβ cell based assay (Aβ1-40 secretion, ELISA)
Conditions: 1 hr room temperature then five-hour incubation at 37° C., Aβ1-40 ELISA, DAPT as 100% inhibition reference, read-out: EC50, reduction of Aβ1-40 secretion in the cell based assay
Protocol: Aβ Cell Based Assay Procedure
In the following assay, the proteolytic activity of BACE in cells exposed to varying concentrations of a compound of interest is measured by observing the amount of Aβ1-40 secreted from HEK293 cells (Human Embryonic Kidney epithelial cell line) stably expressing either wildtype human APP695 protein (HEK-APPwt cells).
HEK-APPwt cells were grown in high glucose DMEM (Dulbecco's Modified Eagles Medium) with 4500 mg glucose/L,L-glutamine, NaHCO3, pyrdoxin HCl, 10 mM HEPES (4-(2-hydroxyethyl)-1-piperazineethanesulfonic acid) (pH 7.4), 0.1 mM NEAA (Non-essential Amino Acids) (GIBCO Cat#11140-050), 10% fetal bovine serum and 250 μg/ml hygromycin in T-225 flasks at 37° C. with CO2 and humidity control.
Test compounds were initially prepared in DMSO and diluted with DMEM media containing 2% FBS (Fetal bovine serum) and 0.05% Tween20. Ten standard compound solutions were prepared having a range of concentrations. The standard compound solutions were used to determine the EC50 of the test compound. The range of concentrations chosen may depend on the compound's predicted potency.
To prepare the cells for the assay, a flask containing HEK-APPwt cells were trypsinized briefly (1 mL trypsin), and once the cells detached, 4 mL of 10% FBS-DMEM was added to the flask. The detached cells were centrifuged at 900 rpm for 5 min to form a pellet.
The HEK-APPwt cell pellet was re-suspended with 10 mL DMEM media containing 2% FBS. 80 μL of the cell suspension was added to each well of a 96-well cell culture plate to give 100,000 cells/well. 10 μL of a standard compound solution was added to each well of the 96-well cell culture plate followed by 10 μL of Alamar blue solution. The cells were incubated at room temperature for 1 hr, followed by a five-hour incubation in the CO2 incubator at 37° C.
At the end of the incubation, the plates were removed from incubator, and the supernatant was collected. Aβ1-40 concentration in the medium was measured by using a commercial Aβ1-40 ELISA kit (IBL, Japan). Briefly, the ELISA plates were coated with anti-human Aβ35-40 mouse IgG monoclonal antibody. A horseradish peroxidase enzyme conjugated anti-human Aβ11-28 mouse IgG monoclone antibody was used for detection. The cell culture supernatant was diluted 1:4 fold with (EIA buffer+Protease inhibitor (buffer containing Protease Inhibitor (1 mL PI/30 mL buffer). A 100 μL aliquot of the diluted supernatant was added to each well of the ELISA plate and incubated for 6 hrs at 4° C. The ELISA plate was washed 8 times with phosphate buffered saline (PBS) containing 0.05% Tween 20.
A 100 μL of detection antibody was then added and incubated for 1 hour at 4° C. The plate was washed 8 times with PBS buffer containing 0.05% Tween 20 followed by addition of 100 μL of the substrate with the chromogen tetramethyl benzidine (TMB). The plate was incubated in the dark at room temperature for about 30 min and a stop solution (1N H2SO4) was added.
The intensity of the color developed was measured at 450 nm. The optical density at 450 nm (OD450) is proportional to the concentration of human Aβ1-40 secreted by the cell. As a reference, N—[N-(3,5-difluorophenacetyl-L-alanyl)]-S-phenylglycine t-butyl ester (DAPT, a γ-secretase inhibitor) was used to indicate 100% inhibition of BACE activity. Thus, the assay measures the ability of a compound of interest to reduce Aβ1-40 secretion. Compound potency was reported as the EC50 by calculating the percent inhibition at all concentration levels and the data were fit with non-linear curve fitting algorithm using in GraphPad Prism.

Row | Structure (SMILES) | EC50 [nM]
1 | O=C(Nc1nc2cccc(C(=O)Nc3ncc[nH]3)c2[nH]1)c1cc2ccccc2cn1 [Example 58, isoquinoline-3-carboxylic acid [4-(1H-imidazol-2-ylcarbamoyl)-1H-benzoimidazol-2-yl]-amide] | ≤ 2000
2 | O=C(Nc1ncc[nH]1)c1ccc2[nH]c(NC(=O)c3cc4ccccc4cn3)nc2c1 [Example 140, isoquinoline-3-carboxylic acid [5-(1H-imidazol-2-ylcarbamoyl)-1H-benzoimidazol-2-yl]-amide] | ≤ 2000
3 | CS(=O)(=O)c1ccc(CNC(=O)c2cccc3[nH]c(NC(=O)c4cc5ccccc5cn4)nc23)cc1 [Example 155, isoquinoline-3-carboxylic acid [4-(4-methanesulfonyl-benzylcarbamoyl)-1H-benzoimidazol-2-yl]-amide] | ≤ 2000
4 | COc1ccc(CNC(=O)c2cccc3nc(NC(=O)c4cc5ccccc5cn4)[nH]c23)cc1 [Example 165, Isoquinoline-3-carboxylic acid [7-(4-methoxy-benzylcarbamoyl)-1H-benzoimidazol-2-yl]-amide] | ≤ 2000
5 | COc1ccc(CCNC(=O)c2cccc3nc(NC(=O)c4cc5ccccc5cn4)[nH]c23)cc1 [Example 176, Isoquinoline-3-carboxylic acid {7-[2-(4-methoxy-phenyl)-ethylcarbamoyl]-1H-benzoimidazol-2-yl}-amide] | ≤ 2000
6 | Cc1nc(NC(=O)c2cccc3[nH]c(NC(=O)c4cc5ccccc5cn4)nc23)[nH]c1C [Example 193, Isoquinoline-3-carboxylic acid [4-(4,5-dimethyl-1H-imidazol-2-ylcarbamoyl)-1H-benzoimidazol-2-yl]-amide] | ≤ 2000
7 | O=C(Nc1nc2c(C(=O)Nc3nc4c(s3)CNCC4)cccc2[nH]1)c1cc2ccccc2cn1 [Example 198, isoquinoline-3-carboxylic acid [7-(4,5,6,7-tetrahydro-thiazolo[5,4-c]pyridin-2-ylcarbamoyl)-1H-benzoimidazol-2-yl]-amide] | ≤ 2000
8 | CN1CCc2nc(NC(=O)c3cccc4[nH]c(NC(=O)c5cc6ccccc6cn5)nc34)sc2C1 [Example 212, Isoquinoline-3-carboxylic acid [4-(5-methyl-4,5,6,7-tetrahydro-thiazolo[5,4-c]pyridin-2-ylcarbamoyl)-1H-benzoimidazol-2-yl]-amide] | ≤ 2000
9 | Cn1ccnc1CN1CCc2nc(NC(=O)c3cccc4[nH]c(NC(=O)c5cc6ccccc6cn5)nc34)sc2C1 [Example 247, Isoquinoline-3-carboxylic acid {4-[5-(1-methyl-1H-imidazol-2-ylmethyl)-4,5,6,7-tetrahydro-thiazolo[5,4-c]pyridin-2-ylcarbamoyl]-1H-benzoimidazol-2-yl}-amide] | ≤ 2000
10 | COc1cc2ccnc(C(=O)Nc3nc4c(C(=O)Nc5ncc[nH]5)cccc4[nH]3)c2cc1OC [Example 289, 6,7-dimethoxy-isoquinoline-1-carboxylic acid [4-(1H-imidazol-2-ylcarbamoyl)-1H-benzoimidazol-2-yl]-amide] | ≤ 2000
11 | COc1ccc2cnc(C(=O)Nc3nc4c(C(=O)Nc5ncc[nH]5)cccc4[nH]3)cc2c1 [Example 294, 6-Methoxy-isoquinoline-3-carboxylic acid [4-(1H-imidazol-2-ylcarbamoyl)-1H-benzoimidazol-2-yl]-amide] | ≤ 2000
12 | COc1cccc2cc(C(=O)Nc3nc4c(C(=O)Nc5ncc[nH]5)cccc4[nH]3)ncc12 [Example 295, 8-methoxy-isoquinoline-3-carboxylic acid [4-(1H-imidazol-2-ylcarbamoyl)-1H-benzoimidazol-2-yl]-amide] | ≤ 2000
13 | COc1ccc2cc(C(=O)Nc3nc4c(C(=O)Nc5ncc[nH]5)cccc4[nH]3)ncc2c1 [Example 296, 7-methoxy-isoquinoline-3-carboxylic acid [4-(1H-imidazol-2-ylcarbamoyl)-1H-benzoimidazol-2-yl]-amide] | ≤ 2000
14 | Cc1nc(C(=O)Nc2nc3c(C(=O)Nc4ncc[nH]4)cccc3[nH]2)cc2ccccc12 [Example 300, 1-methyl-isoquinoline-3-carboxylic acid [4-(1H-imidazol-2-ylcarbamoyl)-1H-benzoimidazol-2-yl]-amide] | ≤ 2000
15 | O=C(Nc1nc2c(C(=O)Nc3ncc[nH]3)cccc2[nH]1)c1nccc2ccccc12 [Example 311, Ar = Isoquinoline-1-yl] | ≤ 2000
16 | COc1cc2cnc(C(=O)Nc3nc4c(C(=O)Nc5ncc[nH]5)cccc4[nH]3)cc2cc1OC [Example 312, Ar = 6,7-Dimethoxy-isoquinoline-3-yl] | ≤ 2000
17 | O=C(Nc1nc2c(C(=O)Nc3ncc[nH]3)cccc2[nH]1)c1cc2cc3c(cc2cn1)OCCO3 [Example 318, Ar = 2,3-Dihydro-[1,4]dioxino[2,3-g]isoquinoline-8-yl] | ≤ 2000
18 | N#Cc1cccc(-c2cccc(C(=O)Nc3nc4c(C(=O)Nc5ncc[nH]5)cccc4[nH]3)n2)c1 [Example 343, 2-{[6-(3-cyano-phenyl)-pyridine-2-carbonyl]-amino}-1H-benzoimidazole-4-carboxylic acid (1H-imidazol-2-yl)-amide] | ≤ 2000
19 | O=C(Nc1nc2c(C(=O)Nc3ncc[nH]3)cccc2[nH]1)c1cncc(-c2cccc(F)c2)c1 [Example 351, Ar = 5-(3-Fluoro-phenyl)-pyridine-3-yl] | ≤ 2000
20 | O=C(Nc1nc2c(C(=O)Nc3ncc[nH]3)cccc2[nH]1)c1cccc(-c2ccco2)n1 [Example 355, Ar = 6-(Furan-2-yl)-pyridine-2-yl] | ≤ 2000
21 | O=C(Nc1nc2c(C(=O)Nc3ncc[nH]3)cccc2[nH]1)c1cncc(C#Cc2ccccc2)c1 [Example 414, 2-[(5-phenylethynyl-pyridine-3-carbonyl)-amino]-1H-benzoimidazole-4-carboxylic acid (1H-imidazol-2-yl)-amide] | ≤ 2000
22 | O=C(Nc1nc2c(C(=O)Nc3ncc[nH]3)cccc2[nH]1)c1cccc(C#Cc2ccccc2)n1 [Example 416, 2-[(6-phenylethynyl-pyridine-2-carbonyl)-amino]-1H-benzoimidazole-4-carboxylic acid (1H-imidazol-2-yl)-amide] | ≤ 2000
23 | CS(=O)(=O)c1cccc(C#Cc2cccc(C(=O)Nc3nc4c(C(=O)Nc5ncc[nH]5)cccc4[nH]3)n2)c1 [Example 417, 2-{[6-(3-methanesulfonyl-phenylethynyl)-pyridine-2-carbonyl]-amino}-1H-benzoimidazole-4-carboxylic acid (1H-imidazol-2-yl)-amide] | ≤ 2000
24 | CC(C)(C)C#Cc1cccc(C(=O)Nc2nc3c(C(=O)Nc4ncc[nH]4)cccc3[nH]2)n1 [Example 428, Ar = 6-(3,3-Dimethyl-but-1-ynyl)-pyridine-2-yl] | ≤ 2000
25 | O=C(Nc1nc2c(C(=O)Nc3ncc[nH]3)cccc2[nH]1)c1cccc(C#Cc2cccnc2)n1 [Example 434, Ar = 6-(Pyridin-3-ylethynyl)-pyridine-2-yl] | ≤ 2000
26 | O=C(Nc1nc2c(C(=O)Nc3ncc[nH]3)cccc2[nH]1)c1cccc(C#CC2CC2)n1 [Example 439, Ar = 6-(Cyclopropylethynyl)-pyridine-2-yl] | ≤ 2000
27 | CS(=O)(=O)c1ccc(CNC(=O)c2cc(-c3ccncc3)cc3[nH]c(NC(=O)c4cc5ccccc5cn4)nc23)cc1 [Example 458, isoquinoline-3-carboxylic acid [4-(4-methanesulfonyl-benzylcarbamoyl)-6-pyridin-4-yl-1H-benzoimidazol-2-yl]-amide] | ≤ 2000
28 | CCOc1cc(C(=O)Nc2ncc[nH]2)c2[nH]c(NC(=O)c3cc4ccccc4cn3)nc2c1 [Example 472, isoquinoline-3-carboxylic acid [5-ethoxy-7-(1H-imidazol-2-ylcarbamoyl)-1H-benzoimidazol-2-yl]-amide] | ≤ 2000
